# Laboratory results from publication PMC7206119, “RIP1 inhibition blocks inflammatory diseases but not tumor growth or metastases” (Cell Death and Differentiation, 2019).
# How the values were obtained:
# Experiment in all cases: biochemical
# Set-up in all cases: DiscoverX kinase panel, active-site competition binding (KINOMEscan type), percent of control at one concentration
# Details in all cases: competition binding, percent of control
# CLK4 = CLK4 (Homo sapiens, UniProt Q9HAZ1)
# CDK5 = CDK5 (Homo sapiens, UniProt Q00535)
# CDK7 = CDK7 (Homo sapiens, UniProt P50613)
# CDK9 = CDK9 (Homo sapiens, UniProt P50750)
# PAK1 = PAK1 (Homo sapiens, UniProt Q13153)
# MTOR = MTOR (Homo sapiens, UniProt P42345)
# PRKR = molecular target: T1, PRKR (Homo sapiens, UniProt P19525)
# T1 construct: gene EIF2AK2
# T1 sequence (P19525 whole entry): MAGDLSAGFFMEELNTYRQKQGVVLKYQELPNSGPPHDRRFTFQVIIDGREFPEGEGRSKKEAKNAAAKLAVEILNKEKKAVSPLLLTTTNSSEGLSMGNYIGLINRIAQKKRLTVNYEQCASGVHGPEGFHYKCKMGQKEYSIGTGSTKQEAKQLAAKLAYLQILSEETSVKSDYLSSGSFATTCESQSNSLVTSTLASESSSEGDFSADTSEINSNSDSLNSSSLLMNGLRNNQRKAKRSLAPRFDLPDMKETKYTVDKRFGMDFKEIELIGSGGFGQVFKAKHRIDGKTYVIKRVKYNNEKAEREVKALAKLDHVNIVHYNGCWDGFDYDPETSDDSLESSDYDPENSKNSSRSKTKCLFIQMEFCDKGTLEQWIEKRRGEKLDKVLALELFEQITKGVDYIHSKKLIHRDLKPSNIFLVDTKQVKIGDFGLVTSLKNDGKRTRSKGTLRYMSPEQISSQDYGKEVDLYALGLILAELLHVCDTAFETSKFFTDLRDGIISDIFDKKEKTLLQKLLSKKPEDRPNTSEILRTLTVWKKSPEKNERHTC
# [1] = molecular target: EGFR(L747-S752del, P753S) (Homo sapiens, UniProt P00533, DEL747-752/P753S)
# KIT(V559D) = KIT(V559D) (Homo sapiens, UniProt P10721, V559D)
# Chain of KIT(V559D) (P10721 whole entry V559D): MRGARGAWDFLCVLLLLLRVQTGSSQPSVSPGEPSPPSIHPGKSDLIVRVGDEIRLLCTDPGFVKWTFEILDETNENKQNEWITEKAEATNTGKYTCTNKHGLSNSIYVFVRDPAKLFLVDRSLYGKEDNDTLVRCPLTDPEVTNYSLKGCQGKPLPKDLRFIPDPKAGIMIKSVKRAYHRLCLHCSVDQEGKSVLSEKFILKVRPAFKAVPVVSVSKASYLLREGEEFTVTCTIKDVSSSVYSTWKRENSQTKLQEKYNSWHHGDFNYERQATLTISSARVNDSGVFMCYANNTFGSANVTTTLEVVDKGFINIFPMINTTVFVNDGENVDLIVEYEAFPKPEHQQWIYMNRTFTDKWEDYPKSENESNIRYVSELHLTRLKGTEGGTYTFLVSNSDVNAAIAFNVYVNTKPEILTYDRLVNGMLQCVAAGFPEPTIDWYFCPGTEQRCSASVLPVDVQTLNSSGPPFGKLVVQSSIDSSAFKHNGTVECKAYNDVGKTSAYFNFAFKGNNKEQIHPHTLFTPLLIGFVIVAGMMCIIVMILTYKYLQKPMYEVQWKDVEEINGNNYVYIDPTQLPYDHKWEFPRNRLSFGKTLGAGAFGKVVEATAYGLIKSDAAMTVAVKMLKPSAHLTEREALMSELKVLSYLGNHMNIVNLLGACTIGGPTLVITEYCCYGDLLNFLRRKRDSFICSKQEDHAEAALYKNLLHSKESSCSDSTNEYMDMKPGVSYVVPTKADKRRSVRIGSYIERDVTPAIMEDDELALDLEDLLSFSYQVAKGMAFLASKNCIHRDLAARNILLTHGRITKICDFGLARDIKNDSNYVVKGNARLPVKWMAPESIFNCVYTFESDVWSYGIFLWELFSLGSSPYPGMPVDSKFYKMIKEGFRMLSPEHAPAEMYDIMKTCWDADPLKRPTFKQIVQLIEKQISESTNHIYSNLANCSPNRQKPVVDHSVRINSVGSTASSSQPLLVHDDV
# SYK = SYK (Homo sapiens, UniProt P43405)
# MAP4K5 = MAP4K5 (Homo sapiens, UniProt Q9Y4K4)
# Chain of MAP4K5 (Q9Y4K4 whole entry): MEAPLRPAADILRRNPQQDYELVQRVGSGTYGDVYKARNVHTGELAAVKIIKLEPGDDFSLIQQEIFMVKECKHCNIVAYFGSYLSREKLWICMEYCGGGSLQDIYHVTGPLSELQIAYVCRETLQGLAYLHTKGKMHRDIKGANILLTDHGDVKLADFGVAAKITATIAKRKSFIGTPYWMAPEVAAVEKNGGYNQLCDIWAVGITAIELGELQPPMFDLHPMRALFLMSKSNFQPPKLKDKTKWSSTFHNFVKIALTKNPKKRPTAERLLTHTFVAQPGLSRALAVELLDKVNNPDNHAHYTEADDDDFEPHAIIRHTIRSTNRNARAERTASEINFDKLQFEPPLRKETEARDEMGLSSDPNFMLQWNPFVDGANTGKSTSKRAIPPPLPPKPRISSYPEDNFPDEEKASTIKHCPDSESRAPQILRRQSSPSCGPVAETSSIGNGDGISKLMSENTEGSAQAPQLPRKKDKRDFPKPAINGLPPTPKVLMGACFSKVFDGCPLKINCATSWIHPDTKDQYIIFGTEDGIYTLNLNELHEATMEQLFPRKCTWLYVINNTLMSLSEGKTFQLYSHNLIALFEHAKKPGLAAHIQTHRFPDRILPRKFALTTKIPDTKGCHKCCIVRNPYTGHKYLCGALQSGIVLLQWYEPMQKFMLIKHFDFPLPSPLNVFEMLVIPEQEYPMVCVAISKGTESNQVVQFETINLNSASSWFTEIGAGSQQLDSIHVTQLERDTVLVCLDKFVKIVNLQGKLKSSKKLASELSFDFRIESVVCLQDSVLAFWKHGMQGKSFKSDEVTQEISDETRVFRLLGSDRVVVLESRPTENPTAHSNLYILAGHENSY
# MST4 = molecular target: T2, MST4 (Homo sapiens, UniProt Q9P289)
# T2 construct: gene STK26
# p38-beta = molecular target: T3, p38-beta (Homo sapiens, UniProt Q15759)
# T3 construct: gene MAPK11
# EPHA6 = EPHA6 (Homo sapiens, UniProt Q9UF33)
# NLK = NLK (Homo sapiens, UniProt Q9UBE8)
# RIOK2 = RIOK2 (Homo sapiens, UniProt Q9BVS4)
# Chain of RIOK2 (Q9BVS4 whole entry): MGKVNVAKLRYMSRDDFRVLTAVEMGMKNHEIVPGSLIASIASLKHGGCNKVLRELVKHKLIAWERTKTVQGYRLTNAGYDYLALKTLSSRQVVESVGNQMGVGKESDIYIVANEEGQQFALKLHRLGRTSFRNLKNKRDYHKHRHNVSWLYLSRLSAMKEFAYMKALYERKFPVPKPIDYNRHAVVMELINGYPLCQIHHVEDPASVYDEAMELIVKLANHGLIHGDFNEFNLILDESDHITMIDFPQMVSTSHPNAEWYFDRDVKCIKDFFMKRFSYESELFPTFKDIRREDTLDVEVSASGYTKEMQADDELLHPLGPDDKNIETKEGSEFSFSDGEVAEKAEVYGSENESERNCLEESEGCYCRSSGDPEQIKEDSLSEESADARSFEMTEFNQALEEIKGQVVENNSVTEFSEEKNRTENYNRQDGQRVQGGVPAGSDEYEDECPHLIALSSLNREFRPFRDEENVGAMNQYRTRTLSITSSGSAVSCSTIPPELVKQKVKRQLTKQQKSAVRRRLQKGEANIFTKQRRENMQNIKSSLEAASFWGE
# FLT3(R834Q) = FLT3(R834Q) (Homo sapiens, UniProt P36888, R834Q)
# [2] = molecular target: T4, TYK2(JH1domain-catalytic) (Homo sapiens, UniProt P29597)
# T4 construct: JH1domain-catalytic
# T4 sequence (P29597 whole entry): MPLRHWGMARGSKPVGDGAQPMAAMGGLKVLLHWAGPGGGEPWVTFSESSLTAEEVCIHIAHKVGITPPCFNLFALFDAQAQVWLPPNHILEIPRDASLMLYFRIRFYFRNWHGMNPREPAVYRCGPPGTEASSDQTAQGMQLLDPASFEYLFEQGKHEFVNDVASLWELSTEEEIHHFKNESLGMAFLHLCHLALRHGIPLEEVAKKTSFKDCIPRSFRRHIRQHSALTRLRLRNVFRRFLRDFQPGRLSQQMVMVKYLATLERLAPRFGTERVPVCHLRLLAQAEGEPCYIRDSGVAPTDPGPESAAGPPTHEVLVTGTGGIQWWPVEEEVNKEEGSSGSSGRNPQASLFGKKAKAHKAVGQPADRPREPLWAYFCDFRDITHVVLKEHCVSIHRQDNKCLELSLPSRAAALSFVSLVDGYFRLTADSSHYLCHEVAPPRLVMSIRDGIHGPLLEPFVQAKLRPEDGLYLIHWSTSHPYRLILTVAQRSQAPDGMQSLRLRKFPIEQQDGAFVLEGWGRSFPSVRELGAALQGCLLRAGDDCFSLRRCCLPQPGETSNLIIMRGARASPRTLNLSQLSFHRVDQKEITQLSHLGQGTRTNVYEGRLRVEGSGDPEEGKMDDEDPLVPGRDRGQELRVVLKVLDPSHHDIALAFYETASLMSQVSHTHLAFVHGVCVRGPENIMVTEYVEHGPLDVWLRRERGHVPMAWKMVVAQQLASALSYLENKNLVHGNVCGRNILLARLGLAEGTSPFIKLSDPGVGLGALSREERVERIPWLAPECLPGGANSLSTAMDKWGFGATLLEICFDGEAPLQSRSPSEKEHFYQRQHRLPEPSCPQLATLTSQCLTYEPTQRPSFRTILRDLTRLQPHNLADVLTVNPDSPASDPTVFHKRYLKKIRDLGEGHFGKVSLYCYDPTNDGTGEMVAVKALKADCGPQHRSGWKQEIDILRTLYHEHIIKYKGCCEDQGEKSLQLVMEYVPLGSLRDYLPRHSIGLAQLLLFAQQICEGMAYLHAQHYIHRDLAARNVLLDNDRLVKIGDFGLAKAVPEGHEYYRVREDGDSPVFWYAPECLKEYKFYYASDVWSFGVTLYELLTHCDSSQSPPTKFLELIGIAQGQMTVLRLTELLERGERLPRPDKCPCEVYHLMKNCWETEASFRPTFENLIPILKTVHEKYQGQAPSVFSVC
# OSR1 = molecular target: T5, OSR1 (Homo sapiens, UniProt O95747)
# T5 construct: gene OXSR1
# TRKB = molecular target: T6, TRKB (Homo sapiens, UniProt Q16620)
# T6 construct: gene NTRK2
# DRAK1 = molecular target: T7, DRAK1 (Homo sapiens, UniProt Q9UEE5)
# T7 construct: gene STK17A
# T7 sequence (Q9UEE5 whole entry): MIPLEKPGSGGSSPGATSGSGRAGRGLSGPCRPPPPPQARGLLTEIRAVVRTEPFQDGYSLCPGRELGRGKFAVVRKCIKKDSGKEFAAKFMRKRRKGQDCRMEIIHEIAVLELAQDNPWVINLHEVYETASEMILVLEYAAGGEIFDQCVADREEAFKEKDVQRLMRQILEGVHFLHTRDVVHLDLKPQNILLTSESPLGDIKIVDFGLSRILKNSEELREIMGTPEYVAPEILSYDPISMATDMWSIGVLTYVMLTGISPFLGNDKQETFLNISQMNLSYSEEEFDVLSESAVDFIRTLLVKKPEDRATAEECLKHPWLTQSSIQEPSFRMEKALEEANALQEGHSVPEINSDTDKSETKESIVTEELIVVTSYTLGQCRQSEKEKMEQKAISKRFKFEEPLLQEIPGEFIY
# Chain of CLK4 (Q9HAZ1 whole entry): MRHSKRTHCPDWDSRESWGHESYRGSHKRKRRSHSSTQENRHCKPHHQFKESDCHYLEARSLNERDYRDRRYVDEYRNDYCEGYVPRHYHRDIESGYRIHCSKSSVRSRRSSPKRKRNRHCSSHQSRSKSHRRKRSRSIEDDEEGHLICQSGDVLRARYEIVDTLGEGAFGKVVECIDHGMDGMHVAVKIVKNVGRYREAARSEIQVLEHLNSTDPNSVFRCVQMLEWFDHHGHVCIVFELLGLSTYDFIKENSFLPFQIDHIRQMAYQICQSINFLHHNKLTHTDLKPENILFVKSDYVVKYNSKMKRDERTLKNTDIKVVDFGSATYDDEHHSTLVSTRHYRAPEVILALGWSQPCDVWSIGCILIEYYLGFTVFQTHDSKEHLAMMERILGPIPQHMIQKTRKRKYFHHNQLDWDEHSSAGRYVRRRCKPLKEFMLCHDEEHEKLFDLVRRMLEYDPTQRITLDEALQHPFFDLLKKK
smiles,measurement,setting,value
"COc1cc2c(cn1)N(C)C(=O)[C@@H](NC(=O)c1nc3n(n1)[C@H](c1ccccc1)CC3)CC2 [GNE684, (S)-N-((S)-7-methoxy-1-methyl-2-oxo-2,3,4,5-tetrahydro-1H-pyrido[3,4-b]azepin-3-yl)-5-phenyl-6,7-dihydro-5H-pyrrolo[1,2-b][1,2,4]triazole-2-carboxamide]",remaining binding at 10 µM,CLK4,95%
same,remaining binding at 10 µM,CDK5,93%
same,remaining binding at 10 µM,CDK7,75%
same,remaining binding at 10 µM,CDK9,97%
same,remaining binding at 10 µM,PAK1,94%
same,remaining binding at 10 µM,MTOR,100%
same,remaining binding at 10 µM,PRKR,100%
same,remaining binding at 10 µM,[1],100%
same,remaining binding at 10 µM,KIT(V559D),100%
same,remaining binding at 10 µM,SYK,75%
same,remaining binding at 10 µM,MAP4K5,91%
same,remaining binding at 10 µM,MST4,100%
same,remaining binding at 10 µM,p38-beta,97%
same,remaining binding at 10 µM,EPHA6,100%
same,remaining binding at 10 µM,NLK,94%
same,remaining binding at 10 µM,RIOK2,28%
same,remaining binding at 10 µM,FLT3(R834Q),100%
same,remaining binding at 10 µM,[2],100%
same,remaining binding at 10 µM,OSR1,93%
same,remaining binding at 10 µM,TRKB,83%
same,remaining binding at 10 µM,DRAK1,92%
